Experimental data published in ChEMBL document CHEMBL5584360, “Undescribed Amaryllidaceae Alkaloids from Zephyranthes citrina and Their Cytotoxicity” (J Nat Prod, 2024).
pIC50: −log10 of the molar value. Converted amounts (≈) assume the structure as drawn.

Tests used:
KB = assay: Cytotoxicity against human KB cells; format: functional; conditions: read-out: ED50 (the source's name)
[1] = Selectivity index, ratio of cytotoxic effect against human MRC5 cells to cytotoxic effect against human A2780 cells; format: toxicity, cell-based; conditions: MRC5 cells versus A2780 cells, read-out: Selectivity Index
[2] = Selectivity index, ratio of cytotoxic effect against human MRC5 cells to cytotoxic effect against human HeLa cells; format: toxicity, cell-based; conditions: MRC5 cells versus HeLa cells, read-out: Selectivity Index
[3] = Selectivity index, ratio of cytotoxic effect against human MRC5 cells to cytotoxic effect against human PANC-1 cells
[4] = Selectivity index, ratio of cytotoxic effect against human MRC5 cells to cytotoxic effect against human HT-29 cells; format: toxicity, cell-based; conditions: MRC5 cells versus HT-29 cells, read-out: Selectivity Index
[5] = Selectivity index, ratio of cytotoxic effect against human MRC5 cells to cytotoxic effect against human Jurkat cells; format: toxicity, cell-based; conditions: MRC5 cells versus Jurkat cells, read-out: Selectivity Index
[6] = Selectivity index, ratio of cytotoxic effect against human MRC5 cells to cytotoxic effect against human MCF7 cells; format: toxicity, cell-based; conditions: MRC5 cells versus MCF7 cells, read-out: Selectivity Index
[7] = Selectivity index, ratio of cytotoxic effect against human MRC5 cells to cytotoxic effect against human A549 cells; format: toxicity, cell-based; conditions: MRC5 cells versus A549 cells, read-out: Selectivity Index
[8] = Selectivity index, ratio of cytotoxic effect against human MRC5 cells to cytotoxic effect against human MOLT-4 cells
[9] = Selectivity index, ratio of cytotoxic effect against human MRC5 cells to cytotoxic effect against human SAOS-2 cells
A549 = assay: Cytotoxicity against human A549 cells measured after 72 hrs by MTT assay; format: functional, cell-based; conditions: A549, 72 h
Cholinesterase = Cholinesterase (Homo sapiens, UniProt P06276); assay: Inhibition of human BChE by Ellman's method
Sequence of Cholinesterase (P06276 whole entry): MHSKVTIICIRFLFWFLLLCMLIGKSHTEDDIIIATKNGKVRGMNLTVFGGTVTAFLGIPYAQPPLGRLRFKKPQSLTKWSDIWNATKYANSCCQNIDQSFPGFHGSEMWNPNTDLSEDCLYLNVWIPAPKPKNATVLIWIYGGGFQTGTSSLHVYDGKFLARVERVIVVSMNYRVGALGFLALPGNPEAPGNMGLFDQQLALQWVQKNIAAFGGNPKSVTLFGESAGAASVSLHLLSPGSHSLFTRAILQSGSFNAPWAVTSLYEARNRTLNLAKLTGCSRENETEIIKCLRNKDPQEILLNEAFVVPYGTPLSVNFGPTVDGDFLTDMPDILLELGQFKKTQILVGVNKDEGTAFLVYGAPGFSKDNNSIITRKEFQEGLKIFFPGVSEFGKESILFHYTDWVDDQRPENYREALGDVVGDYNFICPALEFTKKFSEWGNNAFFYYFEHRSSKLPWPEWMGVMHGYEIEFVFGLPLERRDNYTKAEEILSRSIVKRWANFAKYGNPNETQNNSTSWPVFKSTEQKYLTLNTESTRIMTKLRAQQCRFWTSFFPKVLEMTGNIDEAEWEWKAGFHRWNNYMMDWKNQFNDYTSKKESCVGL

Acetylcholinesterase = Acetylcholinesterase (Homo sapiens, UniProt P22303); assay: Inhibition of human AChE by Ellman's method
Sequence of Acetylcholinesterase (P22303 whole entry): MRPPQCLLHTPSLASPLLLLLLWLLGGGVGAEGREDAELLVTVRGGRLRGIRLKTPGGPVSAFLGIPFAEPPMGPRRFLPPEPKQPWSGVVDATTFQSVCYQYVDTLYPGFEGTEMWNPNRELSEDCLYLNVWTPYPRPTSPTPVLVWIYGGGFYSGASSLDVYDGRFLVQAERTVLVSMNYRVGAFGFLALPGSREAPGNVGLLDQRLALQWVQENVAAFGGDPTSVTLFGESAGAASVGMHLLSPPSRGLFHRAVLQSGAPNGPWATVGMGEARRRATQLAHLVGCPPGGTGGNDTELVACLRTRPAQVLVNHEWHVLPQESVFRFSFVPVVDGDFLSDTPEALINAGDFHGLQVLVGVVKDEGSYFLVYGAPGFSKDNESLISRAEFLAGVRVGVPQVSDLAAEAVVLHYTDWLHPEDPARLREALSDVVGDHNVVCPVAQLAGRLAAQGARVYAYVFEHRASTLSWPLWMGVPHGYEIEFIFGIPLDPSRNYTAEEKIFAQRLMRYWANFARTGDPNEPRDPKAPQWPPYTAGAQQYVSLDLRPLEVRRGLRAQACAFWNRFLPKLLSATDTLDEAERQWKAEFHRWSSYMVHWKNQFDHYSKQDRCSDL

Row | SMILES | EC50 (KB) | selectivity ratio [1] | selectivity ratio [2] | Selectivity Index [3] | selectivity ratio [4] | selectivity ratio [5] | selectivity ratio [6] | selectivity ratio [7] | Selectivity Index [8] | Selectivity Index [9] | IC50 (A549) | pIC50 (Cholinesterase) | pIC50 (Acetylcholinesterase)
1 | COc1cc2c(cc1OC)[C@@]13C=CC(O)C[C@@H]1N(CC3)C2 (stereo partly specified) | 0.51 µg/mL (≈ 1.77 µM) | – | – | – | – | – | – | – | – | – | – | – | –
2 | CO[C@@H]1C=C[C@@]23c4cc5c(cc4CN(C[C@@H]2O)[C@H]3C1)OCO5 [(+)-HAEMANTHAMINE] | – | 0.05 | 0.05 | 0.05 | 0.05 | 0.05 | 0.05 | 0.05 | 0.05 | 0.05 | – | – | –
3 | CO[C@H]1C=C[C@@]23c4cc5c(cc4CN(C[C@@H]2O)[C@H]3C1)OCO5 | – | – | – | – | – | – | – | – | – | – | 15.9 µg/mL (≈ 52.8 µM) | – | –
4 | COc1cc(-c2cccc3c2N(C)CC3)c(CN2CC[C@@]34C=C[C@H](O)C[C@@H]3Oc3c(OC)ccc(c34)C2)c(OC)c1OC | – | – | – | – | – | – | – | – | – | – | – | 5.87 | 4.73
5 | O[C@H]1[C@H]2c3cc4c(cc3CN3CCC(=C[C@@H]1O)[C@H]23)OCO4 [LYCORINE] | – | 0.62 | 0.62 | 0.62 | 0.62 | 0.62 | 0.62 | 0.62 | 0.62 | 0.62 | – | – | –
6 | CO[C@@H]1C=C[C@@]23c4cc5c(cc4[C@H](O)N(C[C@@H]2O)[C@H]3C1)OCO5 | – | 0.14 | 0.14 | 0.14 | 0.14 | 0.14 | 0.14 | 0.14 | 0.14 | 0.14 | – | – | –
